Source: patent US20180303845A1, “USE OF TLR8 AGONISTS TO TREAT CANCER” (VentiRx Pharmaceuticals, Inc., priority 2015, published 2018)

Tests used:
EGFR^| UM-22B HNC cells = assay: 51Cr release assay of cetuximab-mediated ADCC by motolimod-pre-treated PBMC or isolated NK; format: cell-based
Experimental: (§1) PBMC cytokine release was also measured using a multiplex cytokine assay. FcγR III-158 genotype was determined using a quantitative PCR-based assay kit. Significant differences in ADCC by FcγR Ma or TLR8 genotype were determined using a Kruskal-Wallis one-way analysis of variance, and a post hoc Mann-Whitney non-parametric t test was performed for differences between groups. For cytokine analysis, a Mann-Whitney non-parametric test was performed.

PBMC = PBMC cytokine release, multiplex cytokine assay; format: cell-based
Experimental: as §1

HNC = conditions: cited from earlier work
[1] = tested on: recurrent or metastatic SCCHN; conditions: cited from earlier work

With CCCN(CCC)C(=O)C1=Cc2ccc(-c3ccc(C(=O)N4CCCC4)cc3)cc2N=C(N)C1 [motolimod, 2-amino-N,N-dipropyl-8-[4-(pyrrolidin-1-ylcarbonyl)phenyl]-3H-1-benzazepine-4-carboxamide] the “cetuximab-mediated ADCC by TLR8 stimulated PBMC from HNC patients” value (EGFR^| UM-22B HNC cells; PBMC from HNC patients, p=0.0262) was “more avid effectors”, the “enhancement of ADCC lytic activity in NK, FcγR IIIc FF genotype” value (EGFR^| UM-22B HNC cells; motolimod 250 nM 18 hr pre-treatment, cetuximab 10 μg/mL, 4 hr, FF genotype) was 2.6 fold and the “enhancement of ADCC lytic activity in NK, VF genotype” value (EGFR^| UM-22B HNC cells; motolimod 250 nM 18 hr pre-treatment, cetuximab 10 μg/mL, 4 hr, VF genotype) was 1.7 fold. The “enhancement of ADCC lytic activity in NK, VV genotype” value (EGFR^| UM-22B HNC cells; motolimod 250 nM 18 hr pre-treatment, cetuximab 10 μg/mL, 4 hr, VV genotype) was 1.8 fold, the “cetuximab-mediated ADCC against HNC cells” value (EGFR^| UM-22B HNC cells; summary statement) was “enhanced” and the “IFN-γ secretion, treated versus untreated PBMC” value (PBMC; p<0.0001) was “significantly higher levels”. The “TNF-α secretion, treated versus untreated PBMC” value (PBMC; p<0.0001) was “significantly higher levels”, the “IL-12p40 secretion, treated versus untreated PBMC” value (PBMC; p=0.0002) was “significantly higher levels” and the “IL-12p70 secretion, treated versus untreated PBMC” value (PBMC; p=0.03) was “significantly higher levels”. The “cetuximab-mediated ADCC and DC IVS of CD8^+ T cells in HNC” value (HNC; in vitro) was “significantly enhances”, the “DC maturation and cross-priming of CD8^+ cells” value (HNC; motolimod in combination with cetuximab) was “enhances” and the “clinical activity (pharmacologic evidence)” value ([1]; in combination with cetuximab, escalating doses of motolimod) was “dose-dependent clinical activity”. For the same compound, the safety profile ([1]; motolimod days 1, 8, 15 in combination with weekly cetuximab, 28-day cycles) was “acceptable safety profile”.
